From patent US20070173527A1, “HISTONE DEACETYLASE INHIBITORS” (priority 2006, published 2007)

Target: HDAC2 (Homo sapiens, UniProt Q92769)
Experiment: HDAC2 fluorescence inhibition assay (tBoc-Lys(Ac)-AMC)

Chain of HDAC2 (Q92769 whole entry): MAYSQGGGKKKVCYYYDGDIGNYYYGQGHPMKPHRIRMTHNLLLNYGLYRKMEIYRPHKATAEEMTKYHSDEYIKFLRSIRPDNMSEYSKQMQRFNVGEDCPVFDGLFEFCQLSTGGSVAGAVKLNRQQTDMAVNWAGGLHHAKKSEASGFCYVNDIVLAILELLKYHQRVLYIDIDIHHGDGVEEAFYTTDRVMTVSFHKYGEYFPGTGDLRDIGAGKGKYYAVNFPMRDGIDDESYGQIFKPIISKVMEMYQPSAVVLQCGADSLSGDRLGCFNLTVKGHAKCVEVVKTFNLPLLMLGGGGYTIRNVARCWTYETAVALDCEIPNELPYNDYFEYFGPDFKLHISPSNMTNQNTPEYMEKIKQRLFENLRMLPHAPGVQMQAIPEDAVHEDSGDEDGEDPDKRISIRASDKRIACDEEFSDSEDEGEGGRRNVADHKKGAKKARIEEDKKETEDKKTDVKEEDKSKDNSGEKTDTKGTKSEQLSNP

| Structure (SMILES) | IC50 |
| --- | --- |
| Nc1ccccc1NC(=O)c1ccc(CNc2nc3ccccc3[nH]2)cc1 [Example 2, 4-((1H-benzo[d]imidazol-2-ylamino)methyl)-N-(2-aminophenyl)benzamide] | < 100 nM |
| Nc1ccccc1NC(=O)c1ccc(CSc2nc3cccnc3[nH]2)cc1 [Example 9, 4-((3H-imidazo[4,5-b]pyridin-2-ylthio)methyl)-N-(2-aminophenyl)benzamide] | < 100 nM |
| Nc1ccccc1NC(=O)c1ccc(CSc2nc3ccccc3[nH]2)cc1 [Example 3, 4-((1H-benzo[d]imidazol-2-ylthio)methyl)-N-(2-aminophenyl)benzamide] | 100 to 1000 nM |
| Nc1ccccc1NC(=O)c1ccc(C[S+]([O-])c2nc3ccccc3[nH]2)cc1 (centres unmarked) [Example 5, 4-((1H-benzo[d]imidazol-2-ylsulfinyl)methyl)-N-(2-aminophenyl)benzamide] | 100 to 1000 nM |
| Nc1ccccc1NC(=O)c1ccc(COc2nc3ccncc3[nH]2)cc1 [Example 11, 4-((3H-imidazo[4,5-c]pyridin-2-yloxy)methyl)-N-(2-aminophenyl)benzamide] | 100 to 1000 nM |
| CC(C)n1c(SCc2ccc(C(=O)Nc3ccccc3N)cc2)nc2ccccc21 [Example 7, N-(2-aminophenyl)-4-((1-isopropyl-1H-benzo[d]imidazol-2-ylthio)methyl)benzamide] | < 100 nM |
| Nc1ccccc1NC(=O)c1ccc(COc2nc3cccnc3[nH]2)cc1 [Example 4, 4-((3H-imidazo[4,5-b]pyridin-2-yloxy)methyl)-N-(2-aminophenyl)benzamide] | 100 to 1000 nM |
| Nc1ccccc1NC(=O)c1ccc(COc2nc3cccnc3[nH]2)s1 [Example 12, 5-((3H-imidazo[4,5-b]pyridin-2-yloxy)methyl)-N-(2-aminophenyl)thiophene-2-carboxamide] | > 1000 nM |
| Nc1ccccc1NC(=O)c1ccc(CS(=O)(=O)c2nc3ccccc3[nH]2)cc1 [Example 6, 4-((1H-benzo[d]imidazol-2-ylsulfonyl)methyl)-N-(2-aminophenyl)benzamide] | 100 to 1000 nM |
| Nc1ccccc1NC(=O)c1ccc(CSc2nc3ccccc3n2C2CCCCC2)cc1 [Example 8, N-(2-aminophenyl)-4-((1-cyclohexyl-1H-benzo[d]imidazol-2-ylthio)methyl)benzamide] | 100 to 1000 nM |
| Nc1ccccc1NC(=O)c1ccc(CSc2nc3ccncc3[nH]2)cc1 [Example 10, 4-((3H-imidazo[4,5-c]pyridin-2-ylthio)methyl)-N-(2-aminophenyl)benzamide] | < 100 nM |
